Test results from patent US20100160304A1, “AROMATIC SULFONE COMPOUND AS ALDOSTERONE RECEPTOR MODULATOR” (Dainippon Sumitomo Pharma Co., Ltd, priority 2005, published 2010).

biological target: T1, aldosterone receptor MR (Rattus norvegicus, UniProt P22199); assay: Aldosterone receptor binding assay ([3H]aldosterone, soluble fraction of rat kidney); conditions: [3H]aldosterone 2 nM, 2 μM RU-486, 4° C. about 18 hours
T1 construct: the resultant supernatant was being a soluble fraction of the kidney; from tissue; host or cells: kidney of adrenalectomized rat, 105,000 G supernatant (soluble fraction)
T1 sequence (P22199 1-981): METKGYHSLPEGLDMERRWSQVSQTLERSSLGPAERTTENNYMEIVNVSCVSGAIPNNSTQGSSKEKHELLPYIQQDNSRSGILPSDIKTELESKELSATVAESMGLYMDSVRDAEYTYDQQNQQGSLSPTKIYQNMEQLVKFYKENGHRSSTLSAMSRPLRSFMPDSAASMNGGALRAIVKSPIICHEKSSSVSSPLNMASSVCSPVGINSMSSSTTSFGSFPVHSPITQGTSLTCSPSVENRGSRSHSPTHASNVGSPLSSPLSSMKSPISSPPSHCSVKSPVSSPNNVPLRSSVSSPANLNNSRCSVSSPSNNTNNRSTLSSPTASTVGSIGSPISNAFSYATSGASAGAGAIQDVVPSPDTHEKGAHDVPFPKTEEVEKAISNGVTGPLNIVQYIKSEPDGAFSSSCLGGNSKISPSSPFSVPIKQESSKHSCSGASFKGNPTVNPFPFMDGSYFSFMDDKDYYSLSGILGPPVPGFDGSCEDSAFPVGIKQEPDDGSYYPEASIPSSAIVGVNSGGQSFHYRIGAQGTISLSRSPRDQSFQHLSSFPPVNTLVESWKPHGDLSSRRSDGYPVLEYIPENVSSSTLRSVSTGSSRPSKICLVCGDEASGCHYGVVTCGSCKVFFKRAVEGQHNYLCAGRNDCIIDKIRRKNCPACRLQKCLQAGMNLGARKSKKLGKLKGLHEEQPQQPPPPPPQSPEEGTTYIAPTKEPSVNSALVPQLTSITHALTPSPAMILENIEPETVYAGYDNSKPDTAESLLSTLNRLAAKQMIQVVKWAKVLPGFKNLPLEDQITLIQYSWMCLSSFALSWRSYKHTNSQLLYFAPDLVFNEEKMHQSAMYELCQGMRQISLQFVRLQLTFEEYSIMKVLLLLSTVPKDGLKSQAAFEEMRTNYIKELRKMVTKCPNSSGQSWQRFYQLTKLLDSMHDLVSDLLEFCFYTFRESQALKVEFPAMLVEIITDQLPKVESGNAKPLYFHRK
Description: Flank incision (both sides) was subjected to a rat to adrenalectomize. After suturing the rat's incised parts, the rat was again returned to a breeding cage and bred for a duration of 3 to 5 days to collect a kidney from the rat; the collected kidney was homogenized with 0.1 M Tris-HCl, 0.25M sucrose, 0.1M Na2MoO4, 2 mM DTT buffer solution (pH 7.4), the resultant solution was subjected to centrifugal separation at 105,000 G for 30 minutes, and the resultant supernatant was being a soluble fraction of the kidney.
Thereafter, the reactant solution was added with 50 μL of 5% dextran coated charcoal and mixed, and then centrifugated at 3,000 G for 5 minutes. Subsequently, 100 μL of the supernatant was collected and mixed with 3.5 mL of liquid scintillator ACS-II (Amersham) to measure a radioactivity with a liquid scintillation counter (manufactured by Packard, Tri Carb 2700TR). A non-specific binding was determined by adding 2 μM of aldosterone to the reactant solution.
Binding inhibiting rate (%)=10−[(B−N)/(B0−N)]×100
B: Binding amount of the marker ligand in the co-presence of the tested substance and marker ligand,
B0: Binding amount of the marker ligand in the absence of the tested substance, and
N: Binding amount of the marker ligand in the presence of excess aldosterone (2 μM).

In order of rising IC50:
1. Cc1ccc(S(=O)(=O)Cc2ccc3c(c2)C(C)(C)OC(=S)N3)cc1 [Example 16, 4,4-Dimethyl-6-{[(4-methylphenyl)sulfonyl]methyl}-1,4-dihydro-2H-3,1-benzoxazin-2-thione]  0.007 µM
2. C=CC1(C)OC(=S)Nc2ccc(NS(=O)(=O)c3cccs3)cc21 (stereo not shown) [Example 50, N-(4-Methyl-2-thioxo-4-vinyl-1,4-dihydro-2H-3,1-benzoxazin-6-yl)thiophene-2-sulfonamide]  0.011 µM
3. CC1(C)OC(=S)Nc2ccc(NS(=O)(=O)c3ccsc3)cc21 [Example 28, N-(4,4-Dimethyl-2-thioxo-1,4-dihydro-2H-3,1-benzoxazin-6-yl)thiophene-3-sulfonamide]  0.013 µM
4. CC(=O)N(c1ccc2c(c1)C(C)(C)OC(=S)N2)S(=O)(=O)c1cccs1 [Example 26, N-(4,4-Dimethyl-2-thioxo-1,4-dihydro-2H-3,1-benzoxazin-6-yl)-N-(2-thienylsulfonyl)acetamide]  0.015 µM
5. CC1=CC(C)(C)Nc2ccc(CS(=O)(=O)c3ccc(C)cc3)cc21 [Example 57, 2,2,4-Trimethyl-6-{[(4-methylphenyl)sulfonyl]methy}-1,2-dihydroquinoline]  0.029 µM
6. CC1(C)OC(=S)Nc2ccc(CS(=O)(=O)c3ccccc3)cc21 [Example 18, 4,4-Dimethyl-6-[(phenylsulfonyl)methyl]-1,4-dihydro-2H-3,1-benzoxazin-2-thione]  0.039 µM
7. CC1(C)OC(=S)Nc2ccc(OS(=O)(=O)c3cccs3)cc21 [Example 12, 4,4-Dimethyl-2-thioxo-1,4-dihydro-2H-3,1-benzoxazin-6-yl thiophene-2-sulfonate]  0.083 µM
8. CC1=CC(C)(C)Nc2ccc(NS(=O)(=O)c3cccs3)cc21 [Example 62, N-(2,2,4-Trimethyl-1,2-dihydroquinolin-6-yl)thiophene-2-sulfonamide]  0.13 µM
9. CC1(C)OC(=S)Nc2ccc(NS(=O)(=O)c3ccc(C(F)(F)F)cc3)cc21 [Example 30, N-(4,4-Dimethyl-2-thioxo-1,4-dihydro-2H-3,1-benzoxazin-6-yl)-4-(trifluoromethyl)benzenesulfonamide]  0.16 µM
10. CC1=CC(C)(C)Nc2cc(F)c(OS(=O)(=O)c3ccc(C)cc3)cc21 [Example 54, 7-Fluoro-2,2,4-trimethyl-1,2-dihydroquinolin-6-yl 4-methylbenzenesulfonate]  0.2 µM
11. Cc1ccc(S(=O)(=O)Nc2ccc3c(c2)C(C)(C)OC(=S)N3)cc1 [Example 22, N-(4,4-Dimethyl-2-thioxo-1,4-dihydro-2H-3,1-benzoxazin-6-yl)-4-methylbenzenesulfonamide]  0.21 µM
12. CC1=CC(C)(C)Nc2ccc(OS(=O)(=O)c3ccc(C)cc3)cc21 [Example 51, 2,2,4-Trimethyl-1,2-dihydroquinolin-6-yl 4-methylbenzenesulfonate]  0.3 µM
13. CC1=CC(C)(C)Nc2ccc(NS(=O)(=O)c3ccc(C)cc3)cc21 [Example 60, 4-Methyl-N-(2,2,4-trimethyl-1,2-dihydroquinolin-6-yl)benzenesulfonamide]  0.3 µM
14. Cc1ccc(S(=O)(=O)Oc2ccc3c(c2)C(C)(C)OC(=S)N3)cc1 [Example 2, 4,4-Dimethyl-2-thioxo-1,4-dihydro-2H-3,1-benzoxazin-6-yl 4-methylbenzenesulfonate]  0.32 µM
15. C#CC1(C)OC(=S)Nc2ccc(NS(=O)(=O)c3cccs3)cc21 (stereo not shown) [Example 48, N-(4-Ethynyl-4-methyl-2-thioxo-1,4-dihydro-2H-3,1-benzoxazin-6-yl)thiophene-2-sulfonamide]  0.32 µM
16. CC1=CC(C)(C)Nc2ccc(NS(=O)(=O)c3ccccc3)cc21 [Example 63, N-(2,2,4-Trimethyl-1,2-dihydroquinolin-6-yl)benzenesulfonamide]  0.36 µM
17. CC1(C)OC(=S)Nc2ccc(OS(=O)(=O)c3ccc4ccccc4c3)cc21 [Example 14, 4,4-Dimethyl-2-thioxo-1,4-dihydro-2H-3,1-benzoxazin-6-yl naphthalene-2-sulfonate]  0.47 µM
18. CC1=CC(C)(C)Nc2ccc(NS(=O)(=O)c3ccc4ccccc4c3)cc21 [Example 61, N-(2,2,4-Trimethyl-1,2-dihydroquinolin-6-yl)naphthalene-2-sulfonamide]  0.52 µM
19. CC1=CC(C)(C)Nc2ccc(NS(=O)(=O)c3ccccc3F)cc21 [Example 67, 2-Fluoro-N-(2,2,4-trimethyl-1,2-dihydroquinolin-6-yl)benzenesulfonamide]  0.6 µM
20. CC1=CC(C)(C)Nc2ccc(OS(=O)(=O)c3ccc4ccccc4c3)cc21 [Example 52, 2,2,4-Trimethyl-1,2-dihydroquinolin-6-yl naphthalene-2-sulfonate]  0.73 µM
21. O=S(=O)(Nc1ccc2c(c1)C(c1ccccc1)OC(=S)N2)c1cccs1 (stereo not shown) [Example 44, N-(4-Phenyl-2-thioxo-1,4-dihydro-2H-3,1-benzoxazin-6-yl)thiophene-2-sulfonamide]  0.86 µM
22. CC1(C)OC(=S)Nc2ncc(CS(=O)(=O)c3cccs3)cc21 [Example 37, 4,4-Dimethyl-6-[(2-thienylsulfonyl)methyl]-1,4-dihydro-2H-pyrido[2,3-d][1,3]oxazin-2-thione]  0.96 µM
23. Cc1ccc(S(=O)(=O)Cc2cnc3c(c2)C(C)(C)OC(=S)N3)cc1 [Example 36, 4,4-Dimethyl-6-{[(4-methylphenyl)sulfonyl]methyl}-1,4-dihydro-2H-pyrido[2,3-d][1,3]oxazin-2-thione]  1.3 µM
24. CC1=CC(C)(C)Nc2ccc(NS(=O)(=O)c3ccc(Cl)s3)cc21 [Example 66, 5-Chloro-N-(2,2,4-trimethyl-1,2-dihydroquinolin-6-yl)thiophene-2-sulfonamide]  1.3 µM
25. CC1=CC(C)(C)Nc2ccc(NS(=O)(=O)c3cccc(F)c3)cc21 [Example 68, 3-Fluoro-N-(2,2,4-trimethyl-1,2-dihydroquinolin-6-yl)benzenesulfonamide]  1.5 µM
26. CC1(C)OC(=S)Nc2ccc(NS(=O)(=O)c3ccccc3F)cc21 [Example 29, N-(4,4-Dimethyl-2-thioxo-1,4-dihydro-2H-3,1-benzoxazin-6-yl)-2-fluorobenzenesulfonamide]  1.6 µM
27. CC1(C)OC(=O)Nc2ccc(NS(=O)(=O)c3cccs3)cc21 [Example 23, N-(4,4-Dimethyl-2-oxo-1,4-dihydro-2H-3,1-benzoxazin-6-yl)thiophene-2-sulfonamide]  2.4 µM
28. C=CC1(C)OC(=O)Nc2ccc(NS(=O)(=O)c3cccs3)cc21 (stereo not shown) [Example 49, N-(4-Methyl-2-oxo-4-vinyl-1,4-dihydro-2H-3,1-benzoxazin-6-yl)thiophene-2-sulfonamide]  2.7 µM
29. C=CC1OC(=S)Nc2ccc(NS(=O)(=O)c3cccs3)cc21 (stereo not shown) [Example 46, N-(2-Thioxo-4-vinyl-1,4-dihydro-2H-3,1-benzoxazin-6-yl)thiophene-2-sulfonamide]  2.9 µM
30. CC1(C)OC(=S)Nc2ncc(NS(=O)(=O)c3cccs3)cc21 [Example 41, N-(4,4-Dimethyl-2-thioxo-1,4-dihydro-2H-pyrido[2,3-d][1,3]oxazin-6-yl)thiophene-2-sulfonamide]  5.5 µM
31. CC1(C)OC(=S)Nc2ncc(CS(=O)(=O)c3cccnc3)cc21 [Example 38, 4,4-Dimethyl-6-[(pyridine-3-ylsulfonyl)methyl]-1,4-dihydro-2H-pyrido[2,3-d][1,3]oxazin-2-thione]  6.6 µM
